The source of these data is US8618095B2 (Rigel Pharmaceuticals, Inc., priority 2010, dated 2013).

This test concerns Human mast cells (CHMC). Briefly: LD Tryptase release assay in CHMC (mast cell activation induced by FcγR cross-linking). The test is classed as cell-based. As to conditions: Homo sapiens, Mast cell, anti-IgG stimulation, activity of tryptase released upon degranulation. The method, then: Compounds were assayed for inhibition of mast cell activation induced by FcγR cross-linking by measuring the activity of tryptase released upon degranulation as follows:
Human mast cells were cultured and differentiated from […] progenitor cell as described in U.S. Patent Publication No. 2005-234049, incorporated herein by reference. For example, 65 μL of various concentrations of the compound to be assayed were prepared in MT (137 mM NaCl, 2.7 mM KCl, 1.8 mM CaCl2, 1.0 mM MgCl2, 5.6 mM Glucose, 20 mM Hepes (pH 7.4), 0.1% Bovine Serum Albumin, (Sigma A4503)) containing 2% MeOH and 1% DMSO, or control buffer were added to duplicate 96-well V-bottom plates. Pelleted and re-suspended (in warm MT) CHMC cells (65 μL) were added to each 96-well plate, mixed and incubated for 1 hour at 37° C. 25 μl of 6× anti-IgG Rabbit anti-human IgG, Affinity purified (Bethyl Laboratories Cat No. A80-105A3) final concentration 1 μg/mL, was added to the test wells. MT (25 μL) was added to control wells. After a 60-minute incubation at 37° C., cells and cell debris were pelleted by centrifugation at 1000 rpm for 10 min and tryptase and leukotriene C4 levels were measured.
To measure tryptase levels, 25 μL of supernatant from each well was transferred to a fresh 96-well black bottom plate, to which 100 μL of fresh tryptase substrate solution [(Z-Ala-Lys-Arg-AMC2TFA; Enzyme Systems Products, #AMC-246)] 1:2000 in tryptase assay buffer [0.1 M Hepes (pH 7.5), 10% w/v Glycerol, 10 μM Heparin (Sigma H-4898) 0.01% NaN3] was added. After 30 minute incubation at room temperature, the optical density of the plates is measured at 355 nm/460 nm on a spectrophotometric plate reader. Table 1 provides the IC50 values.
Compounds of the disclosure were assayed for their ability to inhibit mast cell activation induced by FcγR cross-linking by measuring the activity of tryptase released upon degranulation. The IC50 values for the LD Tryptase assay are presented in Table 2, in which “0” is >100 μM; “A” is 1-100 μM; “B” is 0.5-1 μM; “C” is 0.1-0.5 μM; and “D” is less than 0.1 μM: […]
The term IC50 denotes the concentration needed to halve the response being measured. `O=C1COc2ccc(Nc3nc(Nc4ccc(N5C[C@@H]6C[C@H]5CO6)cc4)ncc3F)nc2N1` [Compound 37, N4-(3,4-dihydro-3-oxo-2H-pyrido[3,2-b][1,4]oxazin-6-yl)-5-fluoro-N2-[4-((1S,4S)-5-oxa-2-aza-bicyclo[2.2.1]heptan-2-yl)phenyl]-2,4-pyrimidinediamine]: the IC50 lay within 100 to 500 nM.
`CC1(C)Oc2ccc(Nc3nc(Nc4ccc(N5C[C@@H]6C[C@H]5CO6)cc4)ncc3F)nc2NC1=O` [Compound 38, N4-(2,2-dimethyl-3,4-dihydro-3-oxo-2H-pyrido[3,2-b][1,4]oxazin-6-yl)-5-fluoro-N2-[4-((1S,4S)-5-oxa-2-aza-bicyclo[2.2.1]heptan-2-yl)phenyl]-2,4-pyrimidinediamine]: the IC50 is under 100 nM.
For `O=C1COc2ccc(Nc3nc(Nc4ccc(N5CCOCC5=O)cc4)ncc3F)nc2N1` [Compound 39], the IC50 is 100 to 500 nM.
Turning to `CC1(C)Oc2ccc(Nc3nc(Nc4ccc(N5CCOCC5=O)cc4)ncc3F)nc2NC1=O` [Compound 40, N4-(2,2-dimethyl-3,4-dihydro-3-oxo-2H-pyrido[3,2-b][1,4]oxazin-6-yl)-5-fluoro-N2-[4-(morpholin-2-one)phenyl]-2,4-pyrimidinediamine], the IC50 was 100 to 500 nM.
Consider `CC1(C)Oc2ccc(Nc3nc(Nc4ccc(N5CCCOCC5)cc4)ncc3F)nc2NC1=O` [Compound 43, N4-(2,2-dimethyl-3,4-dihydro-3-oxo-2H-pyrido[3,2-b][1,4]oxazin-6-yl)-5-fluoro-N2-[4-homomorpholinophenyl]-2,4-pyrimidinediamine], for which the IC50 is 100 to 500 nM.
As to `O=C1COc2ccc(Nc3nc(Nc4ccc(N5CCCOCC5)cc4)ncc3F)nc2N1` [Compound 44, N4-(3,4-dihydro-3-oxo-2H-pyrido[3,2-b][1,4]oxazin-6-yl)-5-fluoro-N2-[4-homomorpholinophenyl]-2,4-pyrimidinediamine], the concentration for half-maximal inhibition (IC50) was 100 to 500 nM.
On to `CC(C)Oc1cc(Nc2ncc(F)c(Nc3ccc4c(n3)NC(=O)C(C)(C)O4)n2)ccc1N1CCOCC1` [Compound 45, N4-(2,2-dimethyl-3,4-dihydro-3-oxo-2H-pyrido[3,2-b][1,4]oxazin-6-yl)-5-fluoro-N2-[3-(2-propoxy)-4-morpholinophenyl]-2,4-pyrimidinediamine], for which the IC50 was 1000 to 100000 nM.
For `O=C1COc2ccc(Nc3nc(Nc4ccc(C5CCOCC5)cc4)ncc3F)nc2N1` [Compound 46, N4-(3,4-dihydro-3-oxo-2H-pyrido[3,2-b][1,4]oxazin-6-yl)-5-fluoro-N2-[4-tetrahydropyranophenyl]-2,4-pyrimidinediamine], the IC50 was under 100 nM.
Turning to `CC1(C)Oc2ccc(Nc3nc(Nc4ccc(C5CCOCC5)cc4)ncc3F)nc2NC1=O` [Compound 47, N4-(2,2-dimethyl-3,4-dihydro-3-oxo-2H-pyrido[3,2-b][1,4]oxazin-6-yl)-5-fluoro-N2-[4-tetrahydropyranophenyl]-2,4-pyrimidinediamine], the IC50 lay within 1000 to 100000 nM.
`COc1cc(Nc2ncc(F)c(Nc3ccc4c(n3)NC(=O)C(C)(C)O4)n2)ccc1C1CCOCC1` [Compound 48, N4-(2,2-dimethyl-3,4-dihydro-3-oxo-2H-pyrido[3,2-b][1,4]oxazin-6-yl)-5-fluoro-N2-[-3-methoxy-4-tetrahydropyranophenyl]-2,4-pyrimidinediamine]: the 50% inhibitory concentration (IC50) lay within 100 to 500 nM.
Then `COc1cc(Nc2ncc(F)c(Nc3ccc4c(n3)NC(=O)CO4)n2)ccc1C1CCOCC1` [Compound 49, N4-(3,4-dihydro-3-oxo-2H-pyrido[3,2-b][1,4]oxazin-6-yl)-5-fluoro-N2-[-3-methoxy-4-tetrahydropyranophenyl]-2,4-pyrimidinediamine], with under 100 nM; and `C[C@@H]1COCCN1c1ccc(Nc2ncc(F)c(Nc3ccc4c(n3)NC(=O)C(C)(C)O4)n2)cn1` [Compound 50, N4-(2,2-dimethyl-3,4-dihydro-3-oxo-2H-pyrido[3,2-b][1,4]oxazin-6-yl)-5-fluoro-N2-[6-((3R)-3-methylmorpholino)pyridin-3-yl]-2,4-pyrimidinediamine], with under 100 nM.
Regarding `C[C@@H]1COCCN1c1ccc(Nc2ncc(F)c(Nc3ccc4c(n3)NC(=O)CO4)n2)cn1` [Compound 51, N4-(3,4-dihydro-3-oxo-2H-pyrido[3,2-b][1,4]oxazin-6-yl)-5-fluoro-N2-[6-((3R)-3-methylmorpholino)pyridin-3-yl]-2,4-pyrimidinediamine], the IC50 was under 100 nM.
With `CC1(C)Oc2ccc(Nc3nc(Nc4ccc(N5CCC(O)CC5)nc4)ncc3F)nc2NC1=O` [Compound 52, N4-(2,2-dimethyl-3,4-dihydro-3-oxo-2H-pyrido[3,2-b][1,4]oxazin-6-yl)-5-fluoro-N2-[6-(4-hydroxypiperidin-1-yl)pyridin-3-yl]-2,4-pyrimidinediamine], the IC50 was under 100 nM.
Regarding `COC1CCN(c2ccc(Nc3ncc(F)c(Nc4ccc5c(n4)NC(=O)C(C)(C)O5)n3)cn2)CC1` [Compound 53, N4-(2,2-dimethyl-3,4-dihydro-3-oxo-2H-pyrido[3,2-b][1,4]oxazin-6-yl)-5-fluoro-N2-[6-(4-methoxypiperidin-1-yl)pyridin-3-yl]-2,4-pyrimidinediamine], the IC50 was 100 to 500 nM.
`CCOC1CCN(c2ccc(Nc3ncc(F)c(Nc4ccc5c(n4)NC(=O)C(C)(C)O5)n3)cn2)CC1` [Compound 54, N4-(2,2-dimethyl-3,4-dihydro-3-oxo-2H-pyrido[3,2-b][1,4]oxazin-6-yl)-5-fluoro-N2-[6-(4-ethoxypiperidin-1-yl)pyridin-3-yl]-2,4-pyrimidinediamine]: the IC50 lay in the range of 1000 to 100000 nM.
As to `CCO[C@H]1CCN(c2ccc(Nc3ncc(F)c(Nc4ccc5c(n4)NC(=O)C(C)(C)O5)n3)cn2)C1` [Compound 57, N4-(2,2-dimethyl-3,4-dihydro-3-oxo-2H-pyrido[3,2-b][1,4]oxazin-6-yl)-5-fluoro-N2-1-2,4-pyrimidinediamine], the IC50 was 100 to 500 nM.
For the compound `C=C1COCCN1c1ccc(Nc2ncc(F)c(Nc3ccc4c(n3)NC(=O)C(C)(C)O4)n2)cn1` [Compound 58, N4-(2,2-dimethyl-3,4-dihydro-3-oxo-2H-pyrido[3,2-b][1,4]oxazin-6-yl)-5-fluoro-N2-[6-(3-methylenemorpholino)pyridin-3-yl]-2,4-pyrimidinediamine], the IC50 fell in the range of 1000 to 100000 nM.
Turning to `CCOCC1COCCN1c1ccc(Nc2ncc(F)c(Nc3ccc4c(n3)NC(=O)C(C)(C)O4)n2)cn1` (stereo not drawn) [Compound 59, N4-(2,2-dimethyl-3,4-dihydro-3-oxo-2H-pyrido[3,2-b][1,4]oxazin-6-yl)-5-fluoro-N2-[6-(3-(ethoxymethyl)morpholino)pyridin-3-yl]-2,4-pyrimidinediamine], the IC50 lay in the range of 100 to 500 nM.
As for `CC1(C)Oc2ccc(Nc3nc(Nc4ccc(N5CCC(N6CCOCC6)CC5)nc4)ncc3F)nc2NC1=O` [Compound 60, N4-(2,2-dimethyl-3,4-dihydro-3-oxo-2H-pyrido[3,2-b][1,4]oxazin-6-yl)-5-fluoro-N2-[6-(4-morpholinopiperidin-1-yl)pyridin-3-yl]-2,4-pyrimidinediamine], the IC50 fell in the range of 100 to 500 nM.
Consider `CCN(CC)C1CCN(c2ccc(Nc3ncc(F)c(Nc4ccc5c(n4)NC(=O)C(C)(C)O5)n3)cn2)CC1` [Compound 61, N4-(2,2-dimethyl-3,4-dihydro-3-oxo-2H-pyrido[3,2-b][1,4]oxazin-6-yl)-5-fluoro-N2-[6-(4-(diethylamino)piperidin-1-yl)pyridin-3-yl]-2,4-pyrimidinediamine], for which the IC50 was 100 to 500 nM.
Turning to `CC1(C)Oc2ccc(Nc3nc(Nc4ccc(N5CCN6CCC5CC6)nc4)ncc3F)nc2NC1=O` [Compound 62, N4-(2,2-dimethyl-3,4-dihydro-3-oxo-2H-pyrido[3,2-b][1,4]oxazin-6-yl)-5-fluoro-N2-[6-(1,4-diazabicyclo[3.2.2]nonan-4-yl)pyridin-3-yl]-2,4-pyrimidinediamine], the IC50 fell in the range of 500 to 1000 nM.
With `O=C1COc2ccc(Nc3nc(Nc4ccc(N5CC[C@H](O)C5)nc4)ncc3F)nc2N1` [Compound 63, N4-(3,4-dihydro-3-oxo-2H-pyrido[3,2-b][1,4]oxazin-6-yl)-5-fluoro-N2-[6-((3S)-3-hydroxypyrrolidin-1-yl)pyridin-3-yl]-2,4-pyrimidinediamine], the 50% inhibitory concentration (IC50) was 100 to 500 nM.
Take `CC1(C)Oc2ccc(Nc3nc(Nc4ccc(N5CC[C@@H](O)C5)nc4)ncc3F)nc2NC1=O` [Compound 64, N4-(2,2-dimethyl-3,4-dihydro-3-oxo-2H-pyrido[3,2-b][1,4]oxazin-6-yl)-5-fluoro-N2-[6-((3R)-3-hydroxypyrrolidin-1-yl)pyridin-3-yl]-2,4-pyrimidinediamine]: the IC50 lay in the range of 100 to 500 nM.
